# Experimental data published in patent US9833497B2, “Human originated EGF domain proteins and use of the same” (CHENGDU SOURCEBIO LIMITED-LIABILITY COMPANY, priority 2013, dated 2017).
# How the values were obtained:
# Type in all cases: cell-based
# Proteus mirabilis = experiment: MIC against Gram-negative bacteria: Proteus mirabilis; details: for MIC against P. mirabilis: Proteus mirabilis; for MIC against P. mirabilis / MIC (μg/mL) P. mirabilis: 5×10^5 CFU/mL
# In short: (§1)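 The recombinant human-originated EGF domain proteins were serially diluted two-fold against bacteria at 5×10^5 CFU/mL in LB medium. After shaken incubation at 37° C, the lowest concentration with no bacterial growth was recorded as the MIC.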
# Proteus vulgaris = experiment: MIC against Gram-negative bacteria: Proteus vulgaris; details: for MIC against P. vulgaris: Proteus vulgaris; for MIC against P. vulgaris / MIC (μg/mL) P. vulgaris: 5×10^5 CFU/mL
# In short: as §1
# E. coli DH5α = experiment: Antibacterial activity: MIC and growth curve against E. coli DH5α in 96-well plate; details: minimal inhibitory concentration against E. coli DH5α; 96-well plate, 5×10^5 CFU/mL, 37° C., judged after 8 h
# In short: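 Log-phase DH5α (OD600 about 0.5, 37° C, 185 rpm in LB) was pelleted, resuspended in fresh LB and seeded at 5×10^5 CFU/mL with recombinant protein at 50, 25 and 12.5 μg/mL (two-fold series), in triplicate. Plates were shaken at 175 rpm, 37° C, and OD600 was read every 30 min. MIC was the lowest concentration with no growth.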
# Aeromonas hydrophila = experiment: MIC against Gram-negative bacteria: Aeromonas hydrophila; details: for MIC against A. hydrophila: Aeromonas hydrophila; for MIC against A. hydrophila / MIC (μg/mL) A. hydrophila: 5×10^5 CFU/mL
# In short: as §1
# Moraxella catarrhalis = experiment: MIC against Gram-negative bacteria: Moraxella catarrhalis; details: for MIC against M. catarrhalis: Moraxella catarrhalis; for MIC against M. catarrhalis / MIC (μg/mL) M. catarrhalis: 5×10^5 CFU/mL
# In short: as §1
# Enterobacter cloacae = experiment: MIC against Gram-negative bacteria: Enterobacter cloacae; details: for MIC against E. cloacae: Enterobacter cloacae; for MIC against E. cloacae / MIC (μg/mL) E. cloacae: 5×10^5 CFU/mL
# In short: as §1
# Citrobacter diversus = experiment: MIC against Gram-negative bacteria: Citrobacter diversus; details: for MIC against C. diversus: Citrobacter diversus; for MIC against C. diversus / MIC (μg/mL) C. diversus: 5×10^5 CFU/mL
# In short: as §1
# Klebsiella pneumonia = experiment: MIC against Gram-negative bacteria: Klebsiella pneumonia; details: for MIC against K. pneumonia: Klebsiella pneumonia; for MIC against K. pneumonia / MIC (μg/mL) K. pneumonia: 5×10^5 CFU/mL
# In short: as §1
# Pseudomonas aeruginosa = experiment: MIC against Gram-negative bacteria: Pseudomonas aeruginosa; details: for MIC against P. aeruginosa: Pseudomonas aeruginosa; for MIC against P. aeruginosa / MIC (μg/mL) P. aeruginosa: 5×10^5 CFU/mL
# In short: as §1
# Serratia marcescens = experiment: MIC against Gram-negative bacteria: Serratia marcescens; details: for MIC against S. marcescens: Serratia marcescens; for MIC against S. marcescens / MIC (μg/mL) S. marcescens: 5×10^5 CFU/mL
# In short: as §1
# E. coli BL21 = experiment: MIC against Gram-negative bacteria: E. coli BL21; details: E. coli BL21; for MIC against E. coli BL21 / MIC (μg/mL) E. coli BL21: 5×10^5 CFU/mL
# In short: as §1
# [1] = P. mirabilis, 10 h cultivation at 37° C.
# [2] = P. vulgaris, 10 h cultivation at 37° C.
# [3] = A. hydrophila, 10 h cultivation at 37° C.
# [4] = M. catarrhalis, 10 h cultivation at 37° C.
# [5] = E. cloacae, 10 h cultivation at 37° C.
# [6] = C. diversus, 10 h cultivation at 37° C.
# [7] = K. pneumonia, 10 h cultivation at 37° C.
# [8] = P. aeruginosa, 10 h cultivation at 37° C.
# [9] = S. marcescens, 10 h cultivation at 37° C.
substance,measurement,setting,value
PRT1441 (EVDECSWPDHGGCEHRCVNTLGSYKCACDPGYELAADKKMCE; listed as Homo sapiens),MIC against P. mirabilis,Proteus mirabilis; 10 h cultivation at 37° C.,12.5 mg/L
same,MIC against P. vulgaris,Proteus vulgaris; 10 h cultivation at 37° C.,25 mg/L
same,MIC,E. coli DH5α,25 mg/L
same,MIC against A. hydrophila,Aeromonas hydrophila; 10 h cultivation at 37° C.,25 mg/L
same,MIC against M. catarrhalis,Moraxella catarrhalis; 10 h cultivation at 37° C.,12.5 mg/L
same,MIC against E. cloacae,Enterobacter cloacae; 10 h cultivation at 37° C.,12.5 mg/L
same,MIC against C. diversus,Citrobacter diversus; 10 h cultivation at 37° C.,100 mg/L
same,MIC against K. pneumonia,Klebsiella pneumonia; 10 h cultivation at 37° C.,25 mg/L
same,MIC against P. aeruginosa,Pseudomonas aeruginosa; 10 h cultivation at 37° C.,12.5 mg/L
same,MIC against S. marcescens,Serratia marcescens; 10 h cultivation at 37° C.,12.5 mg/L
same,MIC against E. coli BL21,E. coli BL21; 10 h cultivation at 37° C.,25 mg/L
PRT263 (CSKNNGGCSPYATCKSTGDGQRTCTCDTAHTVGDGLTC; listed as Homo sapiens),MIC (μg/mL) P. mirabilis,Proteus mirabilis; [1],12.5 µg/mL
same,MIC (μg/mL) P. vulgaris,Proteus vulgaris; [2],12.5 µg/mL
same,MIC,E. coli DH5α,25 mg/L
same,MIC (μg/mL) A. hydrophila,Aeromonas hydrophila; [3],25 µg/mL
same,MIC (μg/mL) M. catarrhalis,Moraxella catarrhalis; [4],12.5 µg/mL
same,MIC (μg/mL) E. cloacae,Enterobacter cloacae; [5],12.5 µg/mL
same,MIC (μg/mL) C. diversus,Citrobacter diversus; [6],12.5 µg/mL
same,MIC (μg/mL) K. pneumonia,Klebsiella pneumonia; [7],25 µg/mL
same,MIC (μg/mL) P. aeruginosa,Pseudomonas aeruginosa; [8],12.5 µg/mL
same,MIC (μg/mL) S. marcescens,Serratia marcescens; [9],50 µg/mL
same,MIC (μg/mL) E. coli BL21,E. coli BL21; 10 h cultivation at 37° C.,25 µg/mL
PRT1229 (DINECETGLAKCKYKAYCRNKVGGYICSCLVKYTLFNFLAGIIDYDHPDCY; listed as Homo sapiens),MIC against P. mirabilis,"Proteus mirabilis; 96-well plate, 37° C., 10 h",12.5 mg/L
same,MIC against P. vulgaris,"Proteus vulgaris; 96-well plate, 37° C., 10 h",12.5 mg/L
same,MIC,E. coli DH5α,25 mg/L
same,MIC against A. hydrophila,"Aeromonas hydrophila; 96-well plate, 37° C., 10 h",12.5 mg/L
same,MIC against M. catarrhalis,"Moraxella catarrhalis; 96-well plate, 37° C., 10 h",12.5 mg/L
same,MIC against E. cloacae,"Enterobacter cloacae; 96-well plate, 37° C., 10 h",25 mg/L
same,MIC against C. diversus,"Citrobacter diversus; 96-well plate, 37° C., 10 h",12.5 mg/L
same,MIC against K. pneumonia,"Klebsiella pneumonia; 96-well plate, 37° C., 10 h",12.5 mg/L
same,MIC against P. aeruginosa,"Pseudomonas aeruginosa; 96-well plate, 37° C., 10 h",12.5 mg/L
same,MIC against S. marcescens,"Serratia marcescens; 96-well plate, 37° C., 10 h",12.5 mg/L
same,MIC against E. coli BL21,"E. coli BL21; 96-well plate, 37° C., 10 h",12.5 mg/L
PRT895 (NIDECAGNPCHNGGTCEDGINGFTCRCPEGYHDPTCL; listed as Homo sapiens),MIC,Proteus mirabilis; [1],12.5 mg/L
same,MIC,Proteus vulgaris; [2],25 mg/L
same,MIC,E. coli DH5α,50 mg/L
same,MIC,Aeromonas hydrophila; [3],50 mg/L
same,MIC,Moraxella catarrhalis; [4],50 mg/L
same,MIC,Enterobacter cloacae; [5],12.5 mg/L
same,MIC,Citrobacter diversus; [6],12.5 mg/L
same,MIC,Klebsiella pneumonia; [7],50 mg/L
same,MIC,Pseudomonas aeruginosa; [8],12.5 mg/L
same,MIC,Serratia marcescens; [9],25 mg/L
same,MIC,E. coli BL21; 10 h cultivation at 37° C.,25 mg/L
PRT822 (VRAGCRHSGGCLNGGLCDPHTGRCLCPAGWTGDKCQ; listed as Homo sapiens),MIC (μg/mL) P. mirabilis,Proteus mirabilis; [1],25 µg/mL
same,MIC (μg/mL) P. vulgaris,Proteus vulgaris; [2],12.5 µg/mL
same,MIC,E. coli DH5α,12.5 mg/L
same,MIC (μg/mL) A. hydrophila,Aeromonas hydrophila; [3],12.5 µg/mL
same,MIC (μg/mL) M. catarrhalis,Moraxella catarrhalis; [4],12.5 µg/mL
same,MIC (μg/mL) E. cloacae,Enterobacter cloacae; [5],50 µg/mL
same,MIC (μg/mL) C. diversus,Citrobacter diversus; [6],12.5 µg/mL
same,MIC (μg/mL) K. pneumonia,Klebsiella pneumonia; [7],12.5 µg/mL
same,MIC (μg/mL) P. aeruginosa,Pseudomonas aeruginosa; [8],50 µg/mL
same,MIC (μg/mL) S. marcescens,Serratia marcescens; [9],12.5 µg/mL
same,MIC (μg/mL) E. coli BL21,E. coli BL21; 10 h cultivation at 37° C.,25 µg/mL
